Patent US20040063696A1, “1,1-dioxo-2h-1,2-benzothiazine-3-carboxamide derivatives,method for preparing same and pharmaceutical compositions comprising same” (priority 2000, published 2004)

Test system: aggrecan
Test: Expression of aggrecan in articular chondrocytes treated with IL-1 (Northern blot)
Assay type: cell-based
Conditions: calf articular chondrocytes, compared with cultures treated with 10 ng/ml of IL-1
Description: The expression of aggrecan was analysed by Northern blot. Total RNA of cultures of calf articular chondrocytes (CAC) cultured in DMEM+10% FCS and treated with different concentrations of the test compounds, in the presence of IL-1 (10 ng/ml), were extracted, 10 μg of the total RNA were fractionated by electrophoresis on a 1% agarose gel in the presence of an MOPS-formaldehyde buffer, transferred to a nylon membrane and hybridised with a specific aggrecan cDNA probe.

CC[N+](C)(CC)CCCNC(=O)C1=C(O)c2ccccc2S(=O)(=O)N1C.[I-] [Example 1, {3-[(4-Hydroxy-2-methyl-1,1-dioxo-2H-1,2-benzothiazin-3-yl)-carbonylamino]propyl}diethylmethylammonium iodide]
stimulation of the expression of aggrecan (10^−6 M): 150%
stimulation of the expression of aggrecan (10^−M (so in the source)): 200%
